Experimental data: patent US12122779B2, “Pyrrolo-pyridazine derivatives as muscarinic M1 receptor positive allosteric modulators” (SUVEN LIFE SCIENCES LIMITED, priority 2018, dated 2024)

What was measured:
[1] = Rodent pharmacokinetic study; assay type: in vivo, Male Wistar rats; conditions: male, Wistar, plasma, rat; for bioavailability: oral 3 mg/kg vs intravenous 1 mg/kg, read-out: F (%) Bioavailability
Protocol: Rodent Pharmacokinetic Study
Male Wistar rats (260±50 grams) were used as experimental animals. Animals were housed individually in polypropylene cage. Two days prior to study, male Wistar rats were anesthetized with isoflurane for surgical placement of jugular vein catheter. Rats were randomly divided for oral (3 mg/kg) and intravenous (1 mg/kg) dosing (n=3/group) and fasted overnight before oral dosing (p.o.). However, rats allocated to intravenous dosing food and water was provided ad libitum.
At pre-determined point, blood was collected through jugular vein and replenished with an equivalent volume of normal saline. Collected blood was transferred into a labeled eppendorf tube containing 10 μL of heparin as an anticoagulant. Typically blood samples were collected at following time points: 0.08, 0.25, 0.5, 1, 2, 4, 6, 8, and 24 h post dose. Blood was centrifuged at 4000 rpm for 10 minutes. Plasma was separated and stored frozen at −80° C. until analysis. The concentrations of the test compounds were quantified in plasma by qualified LC-MS/MS method using suitable extraction technique. The test compounds were quantified in the calibration range around 1-1000 ng/mL in plasma. Study samples were analyzed using calibration samples in the batch and quality control samples spread across the batch.
Pharmacokinetic parameters Cmax, AUCt, T1/2, Clearance and Bioavailability (F) were calculated by non-compartmental model using standard non-compartmental model by using Phoenix WinNonlin 6.0.4 version Software package.

Male Wistar rats [2] = experiment: Object recognition task model; assay type: in vivo; conditions: rat, p.o.; for Exploration time mean ± S.E.M, Familiar object / Exploration time mean ± S.E.M, Novel object: choice trial 24 h after T1
Protocol: Object Recognition Task Model
(§1) Male Wistar rats (8-10 weeks old) were used as experimental animals. Four animals were housed in each cage. Animals were kept on 20% food deprivation from a day prior to experimentation. Water was provided ad libitum throughout the experiment. Animals were maintained on a 12 h light/dark cycle in temperature and humidity controlled room. The experiment was carried out in a circular or square arena made up of acrylic. Rats were habituated to individual arenas for up to 1 hour in the absence of any objects on day 1.
One group of 12 rats received vehicle and another set of animals received test compounds, before familiar (T1) and choice (T2) trials. During the familiarization phase, (T1), the rats were placed individually in the arena for 3 minutes, in which two identical objects (a1 and a2) were positioned 10 cm from the wall. 24 h after T1, trial for long-term memory test was performed. The same rats were placed in the same arena as they were placed in T1 trial. During the choice phase (T2) rats were allowed to explore the arena for 3 minutes in presence of a copy of familiar object (a3) and one novel object (b). During the T1 and T2 trial, explorations of each object (defined as sniffing, licking, chewing or having moving vibrissae whilst directing the nose towards the object at a distance of less than 1 cm) were recorded using stopwatch. • T1 is the total time spent exploring the familiar objects (a1+a2). • T2 is the total time spent exploring the familiar object and novel object (a3+b).
The object recognition test was performed as described in Behav. Brain Res., 1988, 31, 47-59.

[3] = Rodent brain penetration study; assay type: in vivo, Male Wistar rats; conditions: male, Wistar, brain and plasma, po; rat, 3 mg/kg p.o., brain-plasma ratio; read-out: Single dose Rat Brain Penetration (Cb/Cp) at 3 mg/kg, p.o.
Protocol: Rodent Brain Penetration Study
Male Wistar rats (260±40 grams) were used as experimental animals. Three animals were housed in each cage. Animals were given water and food ad libitum throughout the experiment and maintained on a 12 h light/dark cycle.
Brain penetration was determined in discrete manner in rats. One day prior to dosing day, male Wistar rats were acclimatized and randomly grouped according to their weight. At each time point (0.50, 1 and 2 h) n=3 animals were used.
The test compounds were suitably preformulated and administered orally at (free base equivalent) 3 mg/kg. Blood samples were removed via cardiac puncture by using isoflurane anesthesia. The animals were sacrificed to collect brain tissue. Plasma was separated and brain samples were homogenized and stored frozen at −20° C. until analysis. The concentrations of the test compounds in plasma and brain were determined using LC-MS/MS method.
The test compounds were quantified in plasma and brain homogenate by qualified LC-MS/MS method using suitable extraction technique. The test compounds were quantified in the calibration range of 1-500 ng/mL in plasma and brain homogenate. Study samples were analyzed using calibration samples in the batch and quality control samples spread across the batch. Extent of brain-plasma ratio (Cb/Cp) was calculated.

[4] = target: T1, recombinant human Muscarinic M1 receptor (Homo sapiens, UniProt P11229); experiment: Allosteric potency EC50 for muscarinic M1 receptor, CHO pCRE-Luc reporter cell-based assay with EC20 of acetylcholine; conditions: CHO cells, luciferase activity, in presence of EC20 of acetylcholine, 4 hours
T1 sequence (P11229 1-460): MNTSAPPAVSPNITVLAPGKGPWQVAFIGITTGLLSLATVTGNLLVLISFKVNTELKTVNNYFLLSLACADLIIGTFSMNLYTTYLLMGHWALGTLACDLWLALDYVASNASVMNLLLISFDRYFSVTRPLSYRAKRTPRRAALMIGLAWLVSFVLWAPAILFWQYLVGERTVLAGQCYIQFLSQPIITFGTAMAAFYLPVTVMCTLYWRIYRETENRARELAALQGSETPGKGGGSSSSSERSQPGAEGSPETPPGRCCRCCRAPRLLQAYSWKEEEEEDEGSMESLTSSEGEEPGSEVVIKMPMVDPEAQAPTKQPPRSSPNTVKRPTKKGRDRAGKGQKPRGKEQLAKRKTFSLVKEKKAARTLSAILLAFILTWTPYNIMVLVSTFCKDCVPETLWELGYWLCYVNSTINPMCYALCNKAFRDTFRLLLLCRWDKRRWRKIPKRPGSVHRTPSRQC
Protocol: Determination of Allosteric Potency EC50 Values for Muscarinic M1 Receptor
A stable CHO cell line expressing recombinant human Muscarinic M1 receptor and pCRE-Luc reporter system was used for cell-based assay. The assay offers a non-radioactive based approach to determine binding of a compound to GPCRs. In this specific assay, the level of intracellular cyclic AMP which is modulated by activation or inhibition of the receptor is measured. The recombinant cells harbor luciferase reporter gene under the control of cyclic AMP response element.
The above cells were grown in 96 well clear bottom white plates in Hams F12 medium containing 10% fetal bovine serum (FBS). Prior to the addition of compounds or standard agonist, cells were serum starved overnight. Increasing concentrations of test compounds were added along with EC20 of acetylcholine in OptiMEM medium to the cells. The incubation was continued at 37° C. in CO2 incubator for 4 hours. Medium was removed and cells were washed with phosphate buffered saline. The cells were lysed and luciferase activity was measured in a Luminometer. Luminescence units were plotted against the compound concentrations using Graphpad software.

Male Wistar rats [5] = experiment: Object recognition task model (combination study with donepezil); assay type: in vivo; conditions: rat, combination of sub efficacious doses with donepezil (FIG. 1)
Protocol: Object Recognition Task Model (Combination Study)
The cognition enhancing properties of compounds of this invention were estimated by using this model.
as §1, with “an open field” for “a circular or square arena”, “arenas (open field)” for “arenas”, “20 minutes” for “up to 1 hour”, “1. […]” for “1.”
The same rats were placed in the same arena as they were placed in T1 trial. […] During the T1 and T2 trial, explorations of each object (defined as sniffing, licking, chewing or having moving vibrissae whilst directing the nose towards the object at a distance of less than 1 cm) were recorded using stopwatch. • T1 is the total time spent exploring the familiar objects (a1+a2). • T2 is the total time spent exploring the familiar object and novel object (a3+b). • Discriminative index=Time spent with novel object/(time spent with novel and familiar object). […]

| AUC(0-t) ([1]; intravenous (bolus), 1 mg/kg) | clearance ([1]; intravenous (bolus), 1 mg/kg) | half-life ([1]; intravenous (bolus), 1 mg/kg) | bioavailability [1] | AUC(0-t) ([1]; oral (gavage), 3 mg/kg) | Cmax ([1]; oral (gavage), 3 mg/kg) | half-life ([1]; oral (gavage), 3 mg/kg) | Kp [3] | EC50 [4] | Compound | Inference (Male Wistar rats [2]; 3 mg/kg) | Exploration time mean ± S.E.M, Familiar object (Male Wistar rats [2]; 3 mg/kg) | Exploration time mean ± S.E.M, Novel object (Male Wistar rats [2]; 3 mg/kg) | Procognitive effect in object recognition task (Male Wistar rats [5]) | Inference (Male Wistar rats [2]; 1 mg/kg) | Exploration time mean ± S.E.M, Familiar object (Male Wistar rats [2]; 1 mg/kg) | Exploration time mean ± S.E.M, Novel object (Male Wistar rats [2]; 1 mg/kg) | Inference (Male Wistar rats [2]; 0.1 mg/kg) | Exploration time mean ± S.E.M, Familiar object (Male Wistar rats [2]; 0.1 mg/kg) | Exploration time mean ± S.E.M, Novel object (Male Wistar rats [2]; 0.1 mg/kg) |
| --- | --- | --- | --- | --- | --- | --- | --- | --- | --- | --- | --- | --- | --- | --- | --- | --- | --- | --- | --- |
| 2280 ± 161 ng·h/mL | 7.2 ± 0.5 mL/min/kg | 1.5 ± 0.1 h | 88 ± 4% | 6030 ± 279 ng·h/mL | 1810 ± 327 ng/mL | 2.2 ± 0.6 h | 0.31 ± 0.04 | 1170 nM | CC(C)(O)CNC(=O)c1cc(Cc2ccc(-c3cccnc3)cc2)c2cccn2n1 [Example 29, N-[2-Hydroxy-2-methyl-propyl] 4-[4-(3-pyridyl)-benzyl]-pyrrolo[1,2-b]pyridazine-2-carboxamide] |  |  |  |  | Active | 12.17 ± 1.26 s | 22.26 ± 1.05 s |  |  |  |
| 576 ± 192 ng·h/mL | 30.3 ± 8.9 mL/min/kg | 1.5 ± 0.4 h | 114 ± 20% | 1960 ± 360 ng·h/mL | 363 ± 40 ng/mL | 2.8 ± 0.1 h | 1.41 ± 0.19 | 1550 nM | O=C(NC1CCOCC1)c1cc(Cc2ccc(-c3ccncc3)cc2)c2cccn2n1 [Example 31, N-[Tetrahydropyran-4-yl] 4-[4-(4-pyridyl)-benzyl]-pyrrolo[1,2-b]pyridazine-2-carboxamide] |  |  |  |  |  |  |  | Active | 14.19 ± 1.02 s | 20.18 ± 1.21 s |
| 2290 ± 121 ng·h/mL | 7.1 ± 0.4 mL/min/kg | 1.7 ± 0.1 h | 64 ± 9% | 4430 ± 618 ng·h/mL | 1440 ± 241 ng/mL | 1.79 ± 0.37 h | 0.17 ± 0.01 | 96 nM | Cc1cncc(-c2ccc(Cc3cc(C(=O)N[C@H]4CCCC[C@@H]4O)nn4cccc34)cc2)c1 (stereo in doubt) [Example 44, N-[(1S,2S)-2-Hydroxycyclohexyl]-4-[4-(5-methylpyridin-3-yl)-benzyl]-pyrrolo[1,2-b]pyridazine-2-carboxamide] |  |  |  |  |  |  |  |  |  |  |

Second part, the molecule before the results:

| Compound | AUC(0-t) ([1]; intravenous (bolus), 1 mg/kg) | clearance ([1]; intravenous (bolus), 1 mg/kg) | half-life ([1]; intravenous (bolus), 1 mg/kg) | bioavailability [1] | AUC(0-t) ([1]; oral (gavage), 3 mg/kg) | Cmax ([1]; oral (gavage), 3 mg/kg) | half-life ([1]; oral (gavage), 3 mg/kg) | Kp [3] | EC50 [4] | Inference (Male Wistar rats [2]; 3 mg/kg) | Exploration time mean ± S.E.M, Familiar object (Male Wistar rats [2]; 3 mg/kg) | Exploration time mean ± S.E.M, Novel object (Male Wistar rats [2]; 3 mg/kg) | Procognitive effect in object recognition task (Male Wistar rats [5]) | Inference (Male Wistar rats [2]; 1 mg/kg) | Exploration time mean ± S.E.M, Familiar object (Male Wistar rats [2]; 1 mg/kg) | Exploration time mean ± S.E.M, Novel object (Male Wistar rats [2]; 1 mg/kg) | Inference (Male Wistar rats [2]; 0.1 mg/kg) | Exploration time mean ± S.E.M, Familiar object (Male Wistar rats [2]; 0.1 mg/kg) | Exploration time mean ± S.E.M, Novel object (Male Wistar rats [2]; 0.1 mg/kg) |
| --- | --- | --- | --- | --- | --- | --- | --- | --- | --- | --- | --- | --- | --- | --- | --- | --- | --- | --- | --- |
| O=C(NC1CCOCC1)c1cc(Cc2ccc(Cl)cc2)c2cccn2n1 [Example 14, N-[Tetrahydropyran-4-yl]-4-(4-chlorobenzyl)-pyrrolo[1,2-b]pyridazine-2-carboxamide] | 569 ± 74 ng·h/mL | 27 ± 1 mL/min/kg | 5.7 ± 0.7 h | 31 ± 6% | 532 ± 102 ng·h/mL | 68 ± 22 ng/mL | 7.9 ± 1.3 h | 3.26 ± 0.02 | 976 nM | Active | 11.28 ± 2.18 s | 23.08 ± 2.96 s |  |  |  |  |  |  |  |
| O=C(N[C@H]1CCCC[C@@H]1O)c1cc(Cc2ccccc2)c2cccn2n1 [Example 4, N-[(1S,2S)-2-Hydroxycyclohexyl]-4-benzyl-pyrrolo[1,2-b]pyridazine-2-carboxamide] | 677 ± 194 ng·h/mL | 24 ± 6 mL/min/kg | 0.7 ± 0.1 h | 13 ± 1% | 259 ± 22 ng·h/mL | 113 ± 11 ng/mL | 2.5 ± 0.5 h | 1.42 ± 0.1 | 1850 nM | Active | 16.24 ± 1.09 s | 25.9 ± 2.54 s | Procognitive effects were observed |  |  |  |  |  |  |
| Cn1cc(-c2ccc(Cc3cc(C(=O)NCC4(O)CCCCC4)nn4cccc34)cc2)cn1 [Example 24, N-[l-Hydroxy-cyclohexylmethyl] 4-[4-(1-methyl-1H-pyrazol-4-yl)-benzyl]-pyrrolo[1,2-b]pyridazine-2-carboxamide] | 359 ± 58 ng·h/mL | 47 ± 8 mL/min/kg | 1.6 ± 0.3 h | 5 ± 1% | 52 ± 8 ng·h/mL | 16 ± 4 ng/mL | 1.9 ± 1.1 h | 0.38 | 531 nM |  |  |  |  |  |  |  |  |  |  |
